Key:
PPAR-α = target: T1, PPAR-α (Homo sapiens, UniProt Q07869); test: PPAR-α reporter assay (GAL4 luciferase, CV-1 cells); format: cell-based; conditions: induction ratio of luciferase activity at 50 μM, activity without tested compound = 1, hGR-GAL4-hPPAR-α
T1 construct: expressed in transfected cells; host or cells: CV-1 (African green monkey kidney)
T1 sequence (Q07869 167-468): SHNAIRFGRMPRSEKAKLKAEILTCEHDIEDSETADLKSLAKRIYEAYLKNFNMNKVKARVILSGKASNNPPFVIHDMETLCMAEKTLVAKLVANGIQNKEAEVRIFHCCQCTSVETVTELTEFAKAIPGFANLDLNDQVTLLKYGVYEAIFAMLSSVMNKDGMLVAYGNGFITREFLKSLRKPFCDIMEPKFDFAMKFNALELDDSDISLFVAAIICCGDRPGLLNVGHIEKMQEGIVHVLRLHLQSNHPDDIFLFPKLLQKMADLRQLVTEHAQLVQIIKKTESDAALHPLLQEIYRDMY
Procedure: The reporter assay of PPAR (peroxisome proliferator-activated receptor)-α was conducted by using the following plasmids in accordance with the known report (Steven A. Kliwer et al., The Journal of Biological Chemistry Vol. 270, No. 22: 12953-12956, 1995).
As luciferase expressing plasmid, used was the plasmid which introduces the sequence wherein 5 yeast GAL4 binding sequences, UAS (upstream activating sequence), are tandemly connected to the upstream of the thymidine kinase promoter of pTAL-Luc (#6252-1, produced by Clontech) (UAS×5-TK-Luc) (1).
(§1) As PPAR-α receptor expressing plasmid, used was the plasmid which introduces the N-terminal domain of human GR (1-76aa), the yeast GAL4 DNA binding domain (1-147aa) and PPAR-α ligand binding domain (167-468aa) to NotI site and SalI site of pExchange-1 core vector (#211176, produced by Stratagene) (hGR-GAL4-hPPAR-α) (2). The plasmid mixed solution used in the reporter assay of PPAR-α contains above (1), (2) and plasmid pcDNA3.1(−) as a carrier in the weight ratio of 4:1:3.
The medium having the following composition was used for seeding cell line CV-1 used in the reporter assay, derived from the kidney of an African green monkey, on the plate; and for diluting the tested compounds. Used was Dulbecco modified Eagle medium (D2902 without phenol red, produced by SIGMA) to which 3.7 g/L of NaHCO3, 3.5 g/L of D-glucose and 10% v/v fetal bovine serum were added.
(§2) CV-1 cells were seeded on the 384-well white plate (781080, produced by Greiner) to become 1.5×10^4 cells/30 μL per one well. Then, gene transfer was conducted in accordance with the manual by using OPTI-MEM I (11058-021, produced by GIBCO), FuGENE6 (1-815-075, produced by Roche) and the above PPAR-α plasmid mixed solution. The incubation was conducted in a carbon-dioxide incubator at 37° C. for 6 to 8 hours. Then, a diluted tested compound was added thereto and incubated in a carbon-dioxide incubator at 37° C. for 16 to 18 hours. Britelite (6016979, produced by PerkinElmer) was further added thereto and stirred, and the luciferase activity was measured with EnVision (produced by PerkinElmer).
(§3) Specifying the luciferase activity without addition of a tested compound as 1, the induction ratio of the luciferase activity by each tested compound was calculated.

PPAR-γ = target: T2, PPAR-γ (Homo sapiens, UniProt P37231); test: PPAR-γ reporter assay (GAL4 luciferase, CV-1 cells); format: cell-based; conditions: induction ratio of luciferase activity at 25 μM, activity without tested compound = 1, hGR-GAL4-hPPAR-γ
T2 construct: expressed in transfected cells; host or cells: CV-1 (African green monkey kidney)
T2 sequence (P37231 204-505): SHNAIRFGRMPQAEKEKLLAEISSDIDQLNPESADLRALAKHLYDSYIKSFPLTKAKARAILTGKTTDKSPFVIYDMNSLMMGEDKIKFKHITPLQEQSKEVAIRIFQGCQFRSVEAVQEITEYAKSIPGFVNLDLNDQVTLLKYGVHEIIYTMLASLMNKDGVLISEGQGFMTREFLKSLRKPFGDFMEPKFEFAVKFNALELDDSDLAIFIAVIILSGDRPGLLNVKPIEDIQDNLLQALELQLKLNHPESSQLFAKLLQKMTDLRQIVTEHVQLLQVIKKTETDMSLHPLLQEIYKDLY
Procedure: The reporter assay of PPAR-γ was conducted by using the following plasmids in accordance with the known report (Steven A. Kliwer et al., The Journal of Biological Chemistry Vol. 270, No. 22: 12953-12956, 1995).
As luciferase expressing plasmid, used was the plasmid which introduces the sequence wherein 5 yeast GAL4 binding sequences, UAS, are tandemly connected to the upstream of the thymidine kinase promoter of pTAL-Luc (#6252-1, produced by Clontech) (UAS×5-TK-Luc) (1).
as §1, with “As PPAR-γ” for “As PPAR-α”, “and PPAR-γ2” for “and PPAR-α”, “domain (204-505aa)” for “domain (167-468aa)”, “Stratagene) (hGR-GAL4-hPPAR-γ)” for “Stratagene) (hGR-GAL4-hPPAR-α)”, “of PPAR-γ” for “of PPAR-α”
as §2, with “PPAR-γ” for “PPAR-α”
as §3

| PPAR-α induction ratio (PPAR-α) | PPAR-γ induction ratio (PPAR-γ) | SMILES |
| --- | --- | --- |
| 32.0 | 20.3 | CCCCCCCCCCCC(=O)NC(C)(C)C(=O)O [Example 17] |
| 44.0 | 16.6 | CCCCCCCCCCCCNC(=O)C(NC(=O)CCCCCCCCCCC)C(C)C (racemic) [Example 22] |
| 39.0 | 24.0 | CCCCCCCCCCCC(=O)NC(C)(C(=O)O)C(C)C (racemic) [Example 18] |

— US7728158B2, “PPAR activity regulators” (Ajinomoto Co., Inc., priority 2006, dated 2010)
